Among the data in patent US8088792B2, “Triazolopyridinone derivatives for use as stearoyl CoA desaturase inhibitors” (Gilead Sciences, Inc., priority 2008, dated 2012) are IC50 values, retold here.

The assay addresses T1, Stearoyl-CoA desaturase (SCD) (Rattus norvegicus, UniProt P07308).
T1 construct: The rat liver microsomes were collected according to the procedure described in Ozols (1990) Methods Enzm, 182:225; from tissue
T1 sequence (P07308 1-358): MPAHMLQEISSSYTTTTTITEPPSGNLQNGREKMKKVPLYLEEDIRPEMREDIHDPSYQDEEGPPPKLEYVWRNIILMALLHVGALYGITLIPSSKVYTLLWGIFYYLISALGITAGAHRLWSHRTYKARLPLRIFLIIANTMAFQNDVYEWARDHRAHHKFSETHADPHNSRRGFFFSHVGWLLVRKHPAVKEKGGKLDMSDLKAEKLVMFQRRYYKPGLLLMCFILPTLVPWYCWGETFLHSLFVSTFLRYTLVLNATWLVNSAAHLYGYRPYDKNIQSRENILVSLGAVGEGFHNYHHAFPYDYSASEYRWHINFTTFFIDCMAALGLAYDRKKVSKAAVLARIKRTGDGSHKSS
The assay can be described thus: SCD assay in rat liver microsomes ([3H]stearoyl CoA desaturation, adapted from Talamo and Bloch). Format: biochemical. The conditions noted are these: rat liver microsomes 0.2 mg/ml final, 30 min preincubation, 45 min reaction, room temperature. From the text: The identification of compounds of the invention as SCD inhibitors was readily accomplished using the SCD enzyme and microsomal assay procedure described in Talamo and Bloch (1969) Analytical Biochemistry 29:300-304.
The rat liver microsomes were collected according to the procedure described in Ozols (1990) Methods Enzm, 182:225.
Male Spraque Dawley Rats were placed on regimented fasting protocol for one week to stimulate SCD enzymatic activity. 48-hour periods were alternated between feeding and fasting to induce and down-regulate SCD activity with SCD activity being induced via carbohydrate rich diet prior to liver perfusion and collection.
The rats were anesthetized with Isoflurane inhalation anesthetic, the liver perfused with cold phosphate buffered saline (PBS), weighed, and chilled in cold homogenization buffer (250 mM sucrose, 10 mM Tris, 1 mM EDTA, pH 7.6).
The livers were finely minced and placed in homogenization tube. Homogenization buffer (40 mL) was added to the homogenization tube and the liver homogenized and centrifuged in a pre-chilled […] for 10 min at 4° C.
Following centrifugation, the supernatant was collected and the pellet removed and discarded. The supernatant was centrifuge at 10,000 G for 35 minutes. Following centrifugation, the supernatant was collect and the pellet discarded. The supernatant was then centrifuged in a pre-chilled 45-Ti rotor at 130,000 G (41,000 RPM) for 90 minutes at 4° C.
The supernatant was then aspirated off and the collected microsomal pellet washed in 25 mL of Glycerol PBS (1× PBS 7.4, 20% Glycerol) and resuspended in 4-5 volumes of Glycerol PBS.
The protein concentration of the microsomal preparation was determined by BCA assay (Pierce) and the microsomes were aliquoted and stored at −80° C.
Biobeads were ground to a smaller size in a mortar and pestle and resuspended in 3.6% TCA. The beads were then filtered through […] mesh.
SCD was determined in the desaturase assay buffer. This assay buffer contained 0.1 M Tris buffer, pH 7.2, 2 mM NADH, 4.8 mM ATP, 0.5 mM CoA, 4.8 mM MgCl2, and 0.1% BSA.
1 μl of each compound of Formula I was added to an assay plate by a low volume (0.5-10 μL) multichannel pipette. A DMSO control was also prepared. The microsomes were quickly thawed and added to assay buffer so that a concentration of 0.4 mg/ml was achieved (0.2 mg/ml assay final). 50 μl of the microsome suspension in assay buffer was then added into each well in the compound assay plate, the plate was covered, and the microsomes preincubated with the compounds for 30 minutes on the orbital shaker, 50-75rpm, at room temperature. […]

As a reminder, the IC50 is the midpoint of a concentration-inhibition curve. The low end stands for greater potency, the high end for weaker potency. For the molecule `CCCCCCNC(=O)c1ccc2nn(Cc3ccc(Cl)c(Cl)c3)c(=O)n2c1` [Compound 2, 2-(3,4-dichlorobenzyl)-N-hexyl-3-oxo-2,3-dihydro-[1,2,4]triazolo[4,3-a]pyridine-6-carboxamide], the IC50 stood at 190 nM. This lies in the sub-micromolar range.

Molecule `O=C(O)c1ccc2nn(Cc3ccc(Cl)c(Cl)c3)c(=O)n2c1` [Compound 1, 2-(3,4-dichlorobenzyl)-3-oxo-2,3-dihydro-[1,2,4]triazolo[4,3-a]pyridine-6-carboxylic acid] gave an IC50 of 6200 nM. This IC50 lies about 33-fold higher than the previous one.

Regarding `CC(C)(C)OC(=O)Nc1ccc2nn(Cc3ccc(Cl)c(Cl)c3)c(=O)n2c1` [Compound 4, tert-butyl 2-(3,4-dichlorobenzyl)-3-oxo-2,3-dihydro-[1,2,4]triazolo[4,3-a]pyridin-6-ylcarbamate], half-maximal inhibition (IC50) required 3100 nM.

As to `O=C(NCCO)c1ccc2nn(Cc3ccc(Cl)c(Cl)c3)c(=O)n2c1` [Compound 3, 2-(3,4-dichlorobenzyl)-N-(2-hydroxyethyl)-3-oxo-2,3-dihydro-[1,2,4]triazolo[4,3-a]pyridine-6-carboxamide], the IC50 was found to be 160 nM.
